Source: patent publication US20040127403A1, “Methods for treating and preventing Gram-positive bacteremias” (priority 2002, published 2004)
“And” between values parts separate entries of the source, which are not always exact repeats. Identical values can stand only once.

Key:
Experiment in all cases: MIC, NCCLS broth microdilution
Format in all cases: cell-based
E. faecalis A7789 Line-R = conditions: Table 6, 1st
Procedure: (§1) The efficacy of ramoplanin was tested against recently isolated VRE that are resistant to linezolid and quinupristin/dalfopristin. The culture media containing ramoplanin was supplemented with 0.02% bovine serum albumin (BSA) to prevent ramoplanin binding to the plastic. MIC values were determined in both cation-adjusted Mueller-Hinton broth (CAMHB) and trypticase soy broth (TSB) by the National Committee for Clinical Laboratory Standards (NCCLS) broth microdilution method. Macromolecular biosynthesis experiments were done by following the incorporation of carbon-14-labeled N-acetylglucosamine, acetic acid, amino acids, uridine, and thymidine into peptidoglycan, fatty acid, protein, RNA and DNA, respectively.

E. faecalis ATCC29212 = conditions: E. faecalis ATCC29212
Procedure: as §1

E. faecalis ATCC51299 = conditions: E. faecalis ATCC51299
Procedure: as §1

E. faecium A-5960 Line-R = conditions: Table 6, 2nd
Procedure: as §1

E. faecium A2735 Syn-R = tested on: E. faecium A2735 Syn-R
Procedure: as §1

E. faecium A4192 Syn-R = tested on: E. faecium A4192 Syn-R
Procedure: as §1

E. faecium A5959 Line-R = conditions: Table 6, 2nd
Procedure: as §1

E. faecium A6349 Line-R = tested on: E. faecium A6349 Line-R
Procedure: as §1

E. faecium A6350 Line-R = tested on: E. faecium A6350 Line-R
Procedure: as §1

E. faecium ATCC700221 = conditions: E. faecium ATCC700221
Procedure: as §1

E. faecium UA210 = conditions: E. faecium UA210
Procedure: as §1

E. faecium UA392 = conditions: E. faecium UA392
Procedure: as §1

E. gallinarum UA604 = tested on: E. gallinarum UA604
Procedure: as §1

S. aureus ATCC19636 MSSA = tested on: S. aureus ATCC19636 MSSA
Procedure: as §1

S. aureus ATCC27659 MSSA = tested on: S. aureus ATCC27659 MSSA
Procedure: as §1

S. aureus ATCC27660 MSSA = tested on: S. aureus ATCC27660 MSSA
Procedure: as §1

S. aureus ATCC35556 MRSA = tested on: S. aureus ATCC35556 MRSA
Procedure: as §1

S. aureus ATCC43300 MRSA = tested on: S. aureus ATCC43300 MRSA
Procedure: as §1

S. epidermidis ATCC12228 = conditions: S. epidermidis ATCC12228
Procedure: as §1

S. epidermidis ATCC14990 = conditions: S. epidermidis ATCC14990
Procedure: as §1

S. epidermidis ATCC35983 = conditions: S. epidermidis ATCC35983
Procedure: as §1

S. epidermidis ATCC18972 = conditions: S. epidermidis ATCC18972
S. epidermidis ATCC35984 = conditions: S. epidermidis ATCC35984

In the case of Ramoplanin, the MIC (E. faecalis A7789 Line-R) is reported as 0.06 µg/mL, the MIC (E. faecalis ATCC29212; CAMHB) is reported as 0.5, 0.5 μg/ml and the MIC (E. faecalis ATCC29212; TSB) is reported as 0.5, 0.5 μg/ml. For the same substance, the MIC (E. faecalis ATCC29212; Table 6, 1st) was 0.25 µg/mL, the MIC (E. faecalis ATCC29212; Table 6, 2nd) was 0.5 µg/mL and 0.25 µg/mL and the MIC (E. faecalis ATCC51299; CAMHB) was 0.5, 0.5 μg/ml. For the same substance, the MIC (E. faecalis ATCC51299; TSB) was 0.5, 0.5 μg/ml, the MIC (E. faecalis ATCC51299; Table 6, 1st) was 0.25 µg/mL and the MIC (E. faecalis ATCC51299; Table 6, 2nd) was 0.5 µg/mL. For the same substance, the MIC (E. faecium A-5960 Line-R) was 0.25 µg/mL, the MIC (E. faecium A2735 Syn-R; CAMHB) was 0.25, 0.25 μg/ml and the MIC (E. faecium A2735 Syn-R; TSB) was 0.5, 0.5 μg/ml. For the same substance, the MIC (E. faecium A2735 Syn-R; Table 6, 1st) was 0.25 µg/mL, the MIC (E. faecium A2735 Syn-R; Table 6, 2nd) was 0.25 µg/mL and the MIC (E. faecium A4192 Syn-R; CAMHB) was 0.25, 0.25 μg/ml. The MIC (E. faecium A4192 Syn-R; TSB) was 0.5, 0.5 μg/ml, the MIC (E. faecium A4192 Syn-R; Table 6, 1st) was 0.25 µg/mL and the MIC (E. faecium A4192 Syn-R; Table 6, 2nd) was 0.5 µg/mL. The MIC (E. faecium A5959 Line-R) was 0.25 µg/mL, the MIC (E. faecium A6349 Line-R; Table 6, 1st) was 0.125 µg/mL and the MIC (E. faecium A6349 Line-R; Table 6, 2nd) was 0.25 µg/mL. For the same substance, the MIC (E. faecium A6350 Line-R; CAMHB) was 0.25, 0.25 μg/ml, the MIC (E. faecium A6350 Line-R; TSB) was 0.5, 0.5 μg/ml and the MIC (E. faecium A6350 Line-R; Table 6, 1st) was 0.25 µg/mL. For the same substance, the MIC (E. faecium A6350 Line-R; Table 6, 2nd) was 0.25 µg/mL, the MIC (E. faecium ATCC700221; CAMHB) was 0.25, 0.25 μg/ml and the MIC (E. faecium ATCC700221; TSB) was 0.5, 0.5 μg/ml. For the same substance, the MIC (E. faecium ATCC700221; Table 6, 1st) was 0.25 µg/mL, the MIC (E. faecium ATCC700221; Table 6, 2nd) was 0.25 µg/mL and the MIC (E. faecium UA210; CAMHB) was 0.125, 0.125 μg/ml. The MIC (E. faecium UA210; TSB) was 0.125, 0.125 μg/ml, the MIC (E. faecium UA210; Table 6, 1st) was 0.06 µg/mL and the MIC (E. faecium UA210; Table 6, 2nd) was 0.125 µg/mL. The MIC (E. faecium UA392; CAMHB) was 0.25, 0.25 μg/ml, the MIC (E. faecium UA392; TSB) was 0.25, 0.25 μg/ml and the MIC (E. faecium UA392; Table 6, 1st) was 0.125 µg/mL. The MIC (E. faecium UA392; Table 6, 2nd) was 0.25 µg/mL, the MIC (E. gallinarum UA604; CAMHB) was 0.125, 0.125 μg/ml and the MIC (E. gallinarum UA604; TSB) was 0.25, 0.25 μg/ml. For the same substance, the MIC (E. gallinarum UA604; Table 6, 1st) was 0.06 µg/mL, the MIC (E. gallinarum UA604; Table 6, 2nd) was 0.125 µg/mL and the MIC (S. aureus ATCC19636 MSSA; CAMHB) was 0.5, 0.5 μg/ml. For the same substance, the MIC (S. aureus ATCC19636 MSSA; TSB) was 0.25, 0.25 μg/ml, the MIC (S. aureus ATCC19636 MSSA; Table 6, 1st) was 1 µg/mL and the MIC (S. aureus ATCC19636 MSSA; Table 6, 2nd) was 1 µg/mL. The MIC (S. aureus ATCC27659 MSSA; CAMHB) was 0.25, 0.25 μg/ml, the MIC (S. aureus ATCC27659 MSSA; TSB) was 0.25, 0.25 μg/ml and the MIC (S. aureus ATCC27659 MSSA; Table 6, 1st) was 1 µg/mL. The MIC (S. aureus ATCC27659 MSSA; Table 6, 2nd) was 0.25 µg/mL, the MIC (S. aureus ATCC27660 MSSA; CAMHB) was 0.5 µg/mL and 1 µg/mL and the MIC (S. aureus ATCC27660 MSSA; TSB) was 0.25, 0.25 μg/ml. The MIC (S. aureus ATCC27660 MSSA; Table 6, 1st) was 2 µg/mL, the MIC (S. aureus ATCC27660 MSSA; Table 6, 2nd) was 1 µg/mL and the MIC (S. aureus ATCC35556 MRSA; CAMHB) was 0.5, 0.5 μg/ml. For the same substance, the MIC (S. aureus ATCC35556 MRSA; TSB) was 0.125, 0.125 μg/ml, the MIC (S. aureus ATCC35556 MRSA; Table 6, 1st) was 1 µg/mL and the MIC (S. aureus ATCC35556 MRSA; Table 6, 2nd) was 0.5 µg/mL. For the same substance, the MIC (S. aureus ATCC43300 MRSA; S. aureus ATCC43300 MRSA/VISA, Table 6, 1st) was 2 µg/mL, the MIC (S. aureus ATCC43300 MRSA; S. aureus ATCC43300 MRSA/VISA, Table 6, 2nd) was 0.25 µg/mL and the MIC (S. aureus ATCC43300 MRSA; S. aureus ATCC43300 MRSA, CAMHB) was 1, 1 μg/ml. The MIC (S. aureus ATCC43300 MRSA; S. aureus ATCC43300 MRSA, TSB) was 0.5, 0.5 μg/ml, the MIC (S. epidermidis ATCC12228; CAMHB) was 0.5, 0.5 μg/ml and the MIC (S. epidermidis ATCC12228; TSB) was 1, 1 μg/ml. The MIC (S. epidermidis ATCC12228; Table 6, 1st) was 1 µg/mL, the MIC (S. epidermidis ATCC12228; Table 6, 2nd) was 0.25 µg/mL and the MIC (S. epidermidis ATCC14990; CAMHB) was 0.5, 0.5 μg/ml. For the same substance, the MIC (S. epidermidis ATCC14990; TSB) was 0.5, 0.5 μg/ml, the MIC (S. epidermidis ATCC14990; Table 6, 1st) was 0.5 µg/mL and the MIC (S. epidermidis ATCC14990; Table 6, 2nd) was 0.25 µg/mL. For the same substance, the MIC (S. epidermidis ATCC35983; CAMHB) was 0.5, 0.5 μg/ml, the MIC (S. epidermidis ATCC35983; TSB) was 2 µg/mL and 1 µg/mL and the MIC (S. epidermidis ATCC35983; Table 6, 2nd) was 0.5 µg/mL. For the same substance, the MIC (S. epidermidis ATCC18972; CAMHB) was 0.5, 0.5 μg/ml, the MIC (S. epidermidis ATCC18972; TSB) was 1, 1 μg/ml and the MIC (S. epidermidis ATCC18972; Table 6, 1st) was 1 µg/mL. The MIC (S. epidermidis ATCC18972; Table 6, 2nd) was 0.25 µg/mL, the MIC (S. epidermidis ATCC35984; CAMHB) was 0.5, 0.5 μg/ml and the MIC (S. epidermidis ATCC35984; TSB) was 0.5, 0.5 μg/ml. For the same substance, the MIC (S. epidermidis ATCC35984; Table 6, 1st) was 1 µg/mL and the MIC (S. epidermidis ATCC35984; Table 6, 2nd) was 0.25 µg/mL.
